Here are results for 49 compounds from ChEMBL document CHEMBL5604063, “ASAP - DENV-2 NS2B-NS3 protease fluorescence dose response” (2024).

Test [1] deals with T1, Genome polyprotein (dengue virus type 2, UniProt P29990). It counts as functional, Thailand/16681/1984.
The target in test [2] is T1, Genome polyprotein. In kind it is functional, Thailand/16681/1984. This is another data set of the same source.

Where “and” joins values, the source holds several entries; their conditions need not be identical. Identical values can stand only once.

T1 sequence (P29990 1346-1475 limits assumed): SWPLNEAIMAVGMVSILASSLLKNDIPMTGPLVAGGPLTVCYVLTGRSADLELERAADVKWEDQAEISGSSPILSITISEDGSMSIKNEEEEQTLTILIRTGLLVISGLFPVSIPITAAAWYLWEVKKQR
T1 sequence (P29990 1476-2093 limits assumed): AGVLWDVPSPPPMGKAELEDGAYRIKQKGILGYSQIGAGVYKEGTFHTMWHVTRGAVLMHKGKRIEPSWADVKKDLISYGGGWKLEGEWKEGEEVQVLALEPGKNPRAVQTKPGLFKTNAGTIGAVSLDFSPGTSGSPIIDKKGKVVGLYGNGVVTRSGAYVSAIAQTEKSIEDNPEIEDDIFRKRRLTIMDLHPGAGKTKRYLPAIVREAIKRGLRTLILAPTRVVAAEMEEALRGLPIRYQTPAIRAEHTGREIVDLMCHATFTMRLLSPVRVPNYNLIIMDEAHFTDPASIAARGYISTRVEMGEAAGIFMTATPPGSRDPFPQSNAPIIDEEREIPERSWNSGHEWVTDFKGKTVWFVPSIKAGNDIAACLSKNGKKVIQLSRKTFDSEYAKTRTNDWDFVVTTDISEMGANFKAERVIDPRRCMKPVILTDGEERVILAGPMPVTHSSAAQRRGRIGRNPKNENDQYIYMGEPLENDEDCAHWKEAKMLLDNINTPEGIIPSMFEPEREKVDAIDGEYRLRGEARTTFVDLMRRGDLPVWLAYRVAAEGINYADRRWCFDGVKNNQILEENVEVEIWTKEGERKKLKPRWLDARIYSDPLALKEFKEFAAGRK

As for `O=C1Cc2c(cccc2C(=O)N[C@H]2C[C@H](Cn3ccnc3)C2)N1`, the IC50 (commonly the concentration at which inhibition is half-maximal) on Genome polyprotein [1] was more than 100 µM; at Genome polyprotein [2] it was more than 99.5 µM.
With `Cc1c(C(=O)Nc2cccc(-c3nnn[nH]3)c2)n[nH]c1-c1ccc(Cl)cc1`, the IC50 on Genome polyprotein [1] turned out to be 18.2 µM; against Genome polyprotein [2], 42 µM.
Consider `NCc1cc(C=C2CC(C(=O)O)C2)cc(NC(=O)c2cc(Cl)cc(NC(=O)OCc3ccccc3)c2)c1` (stereo not drawn), for which the IC50 against Genome polyprotein [1] is more than 100 µM; against Genome polyprotein [2], more than 99.5 µM.
For the compound `CC(C)n1cnc2cc(C(=O)Nc3ccc4c(c3)CNC4)ccc21`, the IC50 against Genome polyprotein [1] is more than 100 µM; at Genome polyprotein [2], more than 99.5 µM.
In the case of `c1ccc2c(CNC3CCN(Cc4cscn4)CC3)c[nH]c2c1`, the IC50 at Genome polyprotein [1] is more than 100 µM; against Genome polyprotein [2], more than 99.5 µM.
In the same order, the values of `NC1(c2cccc(NC(=O)c3cc(Cl)cc(NC(=O)OCc4ccccc4)c3)c2)CC1` are more than 100 µM and more than 99.5 µM.
`Cn1ncc2c(C(=O)Nc3ccc4c(c3)CNC4)cc(Br)cc21`: the IC50 against Genome polyprotein [1] is more than 100 µM; against Genome polyprotein [2] it was more than 99.5 µM.
For the compound `C[C@H]1CCC[C@H](C(=O)Nc2cccc(CN)c2)O1`, the IC50 against Genome polyprotein [1] was more than 100 µM; against Genome polyprotein [2], more than 99.5 µM.
Regarding `NCc1cc(C(=O)N[C@H]2CCCOC2)cc([C@@H]2C[C@H]2c2cc(Cl)cc(NC(=O)OCc3ccccc3)c2)c1`, the IC50 is more than 100 µM on Genome polyprotein [1] and more than 99.5 µM against Genome polyprotein [2].
The like results for `Cc1oc2nc(-c3cc(Cl)cc(NC(=O)OCc4ccccc4)c3)ccc2c1C(=O)O` were, in that order, 13.7 µM and 16.6 µM.
With `NCc1ccc(O)c(NC(=O)c2cc(Cl)cc(NC(=O)OCc3ccccc3)c2)c1`, the IC50 on Genome polyprotein [1] is more than 100 µM; against Genome polyprotein [2], 74.5 µM.
In the case of `NS(=O)(=O)c1cc(F)cc(C(=O)Nc2ccc3c(c2)CNC3)c1`, the figures for the IC50 against Genome polyprotein [1] and against Genome polyprotein [2] were more than 100 µM and more than 99.5 µM, respectively.
With `CC(C)n1cc(C(=O)Nc2cc(-c3cccnc3)ccn2)cn1`, the IC50 at Genome polyprotein [1] is more than 100 µM; against Genome polyprotein [2], more than 99.5 µM.
`NS(=O)(=O)c1cc(Cl)cc(C(=O)Nc2ccc3c(c2)CNC3)c1`: the IC50 on Genome polyprotein [1] is more than 100 µM; on Genome polyprotein [2], more than 99.5 µM.
Turning to `CC[C@H](Cc1nnn[nH]1)c1ccc(NC(=O)c2cc(Cl)cc3c2CCC3)cc1`, the figures for the IC50 against Genome polyprotein [1] and at Genome polyprotein [2] were 58.8 µM and 83.6 µM, respectively.
In the case of `O=C(Nc1ccc2c(c1)CNC2)c1cc(Cl)cc2[nH]c(COc3ccccn3)nc12`, the IC50 against Genome polyprotein [1] is 20.1 µM and 16.8 µM; at Genome polyprotein [2] it was more than 99.5 µM.
With `O=C(Nc1cc2c(c(C3=CC[C@H](O)CC3)c1)CNC2)c1cc(Cl)cc2[nH]ncc12`, the IC50 against Genome polyprotein [1] was more than 100 µM; at Genome polyprotein [2] it was 69.5 µM.
In the case of `O=C(c1cc(Cl)cc2[nH]ncc12)N1CCC(C2CCNCC2)CC1`, the IC50 on Genome polyprotein [1] was more than 100 µM; at Genome polyprotein [2], more than 99.5 µM.
For `CC1CCN(CC[C@H]2CCCN2C(=O)Nc2ccc3c(c2)CNC3)CC1`, the figures for the IC50 at Genome polyprotein [1] and at Genome polyprotein [2] were more than 100 µM and more than 99.5 µM, respectively.
As to `CN(C)CC[C@H](NC(=O)c1cc(Cl)cc(NC(=O)OCc2ccccc2)c1)c1ccccc1`, the values for the IC50 at Genome polyprotein [1] and against Genome polyprotein [2] were more than 100 µM and more than 99.5 µM, respectively.
As for `C=CC[C@H](Nc1cccc(C2(C(=O)O)CCC2)c1)c1cc(Cl)cc(NC(=O)OCc2ccccc2)c1`, the IC50 came out at 17.2 µM on Genome polyprotein [1] and 16.7 µM against Genome polyprotein [2].
The like results for `Fc1cc(CNc2ccc3c(c2)CNC3)c2cn[nH]c2c1` were, in that order, more than 100 µM and more than 99.5 µM.
Turning to `O=C(NCC(F)F)[C@H](Nc1ccc2c(c1)CNC2)c1cc(Cl)cc2ccoc12`, the IC50 at Genome polyprotein [1] is more than 100 µM; at Genome polyprotein [2], more than 99.5 µM.
Consider `CCN(CC)C[C@H]1CCCN(C(=O)Nc2ccc3c(c2)CNC3)C1`, for which the values for the IC50 against Genome polyprotein [1] and against Genome polyprotein [2] were more than 100 µM and more than 99.5 µM, respectively.
Turning to `O=C1Cc2c(cccc2C(=O)NC2CCN(c3nccs3)CC2)N1`, the IC50 is more than 100 µM at Genome polyprotein [1] and more than 99.5 µM on Genome polyprotein [2].
The like results for `Cc1noc(C)c1Cc1ccc(C(=O)Nc2cccc(CN)c2)o1` were, in that order, more than 100 µM and more than 99.5 µM.
The like results for `O=C(Nc1ccc2c(c1)CCNCC2)c1cc(Cl)cc2[nH]ncc12` were, in that order, more than 100 µM and 47.5 µM.
In the case of `O=C(Nc1ccc2c(c1)CNC2)c1ccc(-c2cncs2)cc1`, the figures for the IC50 at Genome polyprotein [1] and at Genome polyprotein [2] were more than 100 µM and more than 99.5 µM, respectively.
For `NCc1cccc(NC(=O)[C@H]2CCOC3(CCC3)C2)c1`, the IC50 on Genome polyprotein [1] is more than 100 µM; against Genome polyprotein [2] it was more than 99.5 µM.
`CNC(=O)[C@]1(Nc2ccc3c(c2)CNC3)C(=O)Nc2ccccc21`: the IC50 is more than 100 µM against Genome polyprotein [1] and more than 99.5 µM on Genome polyprotein [2].
In the same order, the values of `N#Cc1cc(Cl)cc(C(=O)Nc2cccc(CN)c2)c1` are more than 100 µM and more than 99.5 µM.
With `O=C(Nc1cc(Cl)cc(-c2ccc3nc(C(=O)O)ncc3c2)c1)OCc1ccccc1`, the IC50 on Genome polyprotein [1] is 11.6 µM and 12.4 µM; at Genome polyprotein [2], 11.4 µM.
For `N[C@H]1Cc2ccc(NC(=O)c3cc(Cl)cc4[nH]ncc34)cc2C1`, the IC50 against Genome polyprotein [1] is more than 100 µM; against Genome polyprotein [2], more than 99.5 µM.
Consider `CN(C)C(=O)CCCc1nc2c(C(=O)Nc3ccc4c(c3)CNC4)cc(Cl)cc2[nH]1`, for which the results for the IC50 against Genome polyprotein [1] and against Genome polyprotein [2] were more than 100 µM and more than 99.5 µM, respectively.
As for `O=C1Cc2c(cccc2C(=O)N[C@H]2COc3cc(Br)cnc32)N1`, the results for the IC50 at Genome polyprotein [1] and against Genome polyprotein [2] were more than 100 µM and more than 99.5 µM, respectively.
As for `Cc1cc(C(=O)Nc2cccc(CN)c2)cc(NCC(F)(F)F)n1`, the results for the IC50 at Genome polyprotein [1] and against Genome polyprotein [2] were more than 100 µM and more than 99.5 µM, respectively.
With `CC[C@H](C(=O)Nc1cccc(CN)c1)n1cc(Br)c(C(F)(F)F)n1`, the IC50 was more than 100 µM at Genome polyprotein [1] and more than 99.5 µM against Genome polyprotein [2].
Turning to `Cc1c(C(=O)Nc2cc(C(=O)N3CCCNC(=O)C3)ccn2)cc(C2CC2)n1C`, the IC50 at Genome polyprotein [1] was more than 100 µM; at Genome polyprotein [2], more than 99.5 µM.
Turning to `O=C(Nc1cc([C@H]2CCOC2)ccn1)c1ccc2scnc2c1`, the IC50 against Genome polyprotein [1] was more than 100 µM; against Genome polyprotein [2], more than 99.5 µM.
Consider `O=C(Nc1cc(Cl)cc(C(=O)Nc2cccc([C@H]3CCNC3)c2)c1)OCc1ccccc1`, for which the IC50 at Genome polyprotein [1] was 95.4 µM and > 100 µM; against Genome polyprotein [2], 33.3 µM and 58.3 µM and 41.4 µM.
For the compound `NCc1cccc(NC(=O)[C@H](NC(=O)OCc2ccccc2)C2CCN(CCc3ccccc3)CC2)c1`, the IC50 on Genome polyprotein [1] was more than 100 µM; on Genome polyprotein [2], more than 99.5 µM.
On to `CNC(=O)[C@H](Nc1cc(Cl)cc(NC(=O)OCc2ccccc2)c1)c1cccc(CN)c1`, for which the IC50 against Genome polyprotein [1] was more than 100 µM; against Genome polyprotein [2] it was more than 99.5 µM.
For `CCc1cnc2c(NC(=O)c3cccc4c3CC(=O)N4)cnn2c1`, the IC50 is more than 100 µM against Genome polyprotein [1] and more than 99.5 µM against Genome polyprotein [2].
Regarding `COCC=Cc1cccc([C@@H](NC(=O)OCc2ccccc2)C(=O)Nc2cccc(CN)c2)c1`, the IC50 is more than 100 µM at Genome polyprotein [1] and 56.9 µM against Genome polyprotein [2].
In the same order, the values of `Cc1nc(C2CC2)sc1C(=O)Nc1cc(CCCN)ccn1` are more than 100 µM and more than 99.5 µM.
In the same order, the values of `NCc1cc(NC(=O)c2cc(Cl)cc(NC(=O)OCc3ccccc3)c2)cc(-c2ccc3c(c2)C[C@H](C(=O)O)CO3)c1` are more than 100 µM and 77.2 µM.
Take `NCc1cccc(NC(=O)c2nn(-c3ccc(Cl)c(F)c3)c3c2CCC3)c1`: the IC50 on Genome polyprotein [1] was more than 100 µM; against Genome polyprotein [2] it was 72.7 µM.
In the case of `Cc1c(C(=O)Nc2cc(-c3cnn(C)c3)ccn2)cc(C2CC2)n1C`, the figures for the IC50 against Genome polyprotein [1] and against Genome polyprotein [2] were more than 100 µM and more than 99.5 µM, respectively.
For the compound `Cc1nn(C)c(C)c1[C@H]1CCCN1C(=O)Nc1ccc2c(c1)CNC2`, the IC50 on Genome polyprotein [1] was more than 100 µM; against Genome polyprotein [2], more than 99.5 µM.
